How the values were obtained:
Format in all cases: cell-based
[1] = test system: Ly8 cells and normal human B cells (tonsil lymphocytes); test: Toxicity in Ly8 cells compared to normal B cells (alamar blue); details: alone and in combination; 36 hours
Experimental: BEZ235 was tested in combination with the PAK1 inhibitor IPA-3 using Calcusyn software by applying the Chou-Talalay method. BJAB, HBL1, HBL2, HT, Ly8, and Riva cells were tested, as were normal tonsil lymphocytes. Ly8 and tonsillar lymphocytes were cultured in 96-well plates (approximately 500,000 cells/ml) for 36 hours in Iscove's modified Dulbecco's medium (IMDM) with 20% human AB serum. Viability was assessed with alamar blue dye and normalized to the lowest concentration of BEZ235 in each group.
Finally, BEZ235 and IPA-3 were administered separately and concurrently to normal human B cells to ascertain a therapeutic window between normal and malignant cells.

RPMI8402 = test: MTT cell viability assay; details: Homo sapiens, RPMI 8402; RPMI8402, T-cell, RPMI 10% FBS
Description: (§1) A total of 60 cell lines representative of different cancer types were obtained from the ATCC and grown and maintained in accordance with the provided guidelines. The cell lines represented the following distinct histologies: mantle cell lymphoma (5 lines: JVM13, Rec1, Mino, JVM2, Jeko); germinal center B-cell derived (“GCB”) DLBCL (19 lines: Farage, BJAB, Ly1, Ly2, Ly7, Ly8, Ly19, HBL2, HT, Karpas422, Pfeiffer, RCK8, RL, Sci-1, Ski, SUDHL4, SUDHL7, Toledo, WSU-NHL); primary mediastinal B-cell lymphoma (“PMBL”) (3 lines: K1106, MEDB1, U2940); Burkitt lymphoma (11 lines: Daudi, CA46, EB1, EB2, EB3, Jijoye, Raji, Ramos, Namwala, BL2, BL41); Hodgkin lymphoma (3 lines: RMPI6666, L1236, L428); activated B-cell derived (“ABC”) DLBCL (6 lines: Ly3, HBL1, TMD8, Ly10, Riva, U2932); multiple myeloma (6 lines: U266, SKMM1, RPMI8226, KMS12, IM9, H929); acute myelogenous leukemia (“AML”) (2 lines: U937, KG1); acute lymphoblastic leukemia (“ALL”) (2 lines: Reh, SR); and T-cell lymphoma (3 lines: Molt4, RPMI8402, Jurkat). The cell lines were tested within six months after resuscitation.
(§2) The 3-(4,5-dimethylthiazol-2-yl)-2,5-diphenyltetrazolium bromide (MTT) cell viability assay was used to determine cell viability in response to drug treatment. Five replicates per concentration tested were carried out in serial dilutions with a total of ten concentrations with a 50% reduction in drug concentration per dilution for each plate. A total of 15 μl of MTT reagent was added to each drug-treated well and incubated for three hours in 37° C. Detergent was added to each drug-treated well and incubated overnight at room temperature without exposure to light. Absorbance was measured at 570 nm using a plate reader from Tecan Group. The IC50 concentration was determined using the publicly available ED50 plus v1.0 software program.

SKMM1 = test: MTT cell viability assay; details: SKMM1, Multiple Myeloma, RPMI 10% FBS
Description: as §1, §2

Jurkat = test: MTT cell viability assay; details: Homo sapiens, T-cell, RPMI 10% FBS
Description: as §1, §2

U2940 = test: MTT cell viability assay; details: Homo sapiens, U-2940; U2940, PMBL, RPMI 10% FBS
Description: as §1, §2

RMPI6666 = test: MTT cell viability assay; details: RMPI6666, Hodgkin Lymphoma, RPMI 10% FBS
Description: as §1, §2

BL41 = test: MTT cell viability assay; details: Homo sapiens, BL-41; BL41, Burkitt Lymphoma, RPMI 10% FBS
Description: as §1, §2

Ski = test: MTT cell viability assay; details: GCB DLBCL, RPMI 10% FBS
Description: as §1, §2

Namwala = test: MTT cell viability assay; details: Burkitt Lymphoma, RPMI 10% FBS
Description: as §1, §2

WSUNHL = test: MTT cell viability assay; details: Homo sapiens, WSU-NHL, GCB DLBCL, RPMI 10% FBS
Description: as §1, §2

LY10 = test: MTT cell viability assay; details: LY10, ABC DLBCL, OCI
Description: as §1, §2

HT = test: MTT cell viability assay; details: Homo sapiens, GCB DLBCL, RPMI 10% FBS
Description: as §1, §2

RPMI8226 = test: MTT cell viability assay; details: Homo sapiens, RPMI-8226; RPMI8226, Multiple Myeloma, RPMI 10% FBS
Description: as §1, §2

Riva = test: MTT cell viability assay; details: ABC DLBCL, RPMI 10% FBS
Description: as §1, §2

Toledo = test: MTT cell viability assay; details: Homo sapiens, GCB DLBCL, RPMI 10% FBS
Description: as §1, §2

HBL1 = test: MTT cell viability assay; details: HBL1, ABC DLBCL, RPMI 10% FBS
Description: as §1, §2

JVM2 = test: MTT cell viability assay; details: Homo sapiens, JVM-2; JVM2, MantleCellLymphoma, RPMI 10% FBS
Description: as §1, §2

L428 = test: MTT cell viability assay; details: Homo sapiens, L-428; L428, Hodgkin Lymphoma, RPMI 10% FBS
Description: as §1, §2

JVM13 = test: MTT cell viability assay; details: JVM13, MantleCellLymphoma, RPMI 10% FBS
Description: as §1, §2

LY1 = test: MTT cell viability assay; details: LY1, GCB DLBCL, OCI
Description: as §1, §2

SUDHL7 = test: MTT cell viability assay; details: SUDHL7, GCB DLBCL, RPMI 15% FBS
Description: as §1, §2

LY2 = test: MTT cell viability assay; details: LY2, GCB DLBCL, OCI
Description: as §1, §2

LY8 = test: MTT cell viability assay; details: LY8, GCB DLBCL, OCI
Description: as §1, §2

[2] = test system: Ly8 cell lines with stable knockdown of PAK1 expression; test: MTT assay in Ly8 cells with shRNA knockdown of PAK1; details: on average, P<0.01
Experimental: Lentiviral pGIPZ constructs containing either a scrambled sequence (non-silencing; cat. no. RHS4346; Open Biosystems) as control, or a hairpin sequence targeting the PAK1 gene (cat. no. RHS4430; Open Biosystems) were mixed with Lentiviral packaging mix (cat. no. TLP4691; Open Biosystems) and transfected into TLA-HEK-293T cells using Arrest-in as a transfection reagent. Virus was harvested 72 hours post-transfection and frozen at −80° C. until use. DLBCL cell lines were infected with virus in the presence of 8 μg/μl of polybrene, using 1×10^5 cells per well in a 6-well plate. The plates containing cells and virus were spun at 700 g for 90 minutes at room temperature. […] Successful knockdown of PAK1 was confirmed by Western blot and quantitative PCR. […]

Row | Compound | IC50 (RPMI8402) [nM] | IC50 (SKMM1) [nM] | IC50 (Jurkat) [nM] | IC50 (U2940) [nM] | IC50 (RMPI6666) [nM] | IC50 (BL41) [nM] | IC50 (Ski) [nM] | IC50 (Namwala) [nM] | IC50 (WSUNHL) [nM] | IC50 (LY10) [nM] | IC50 (HT) [nM] | IC50 (RPMI8226) [nM] | IC50 (Riva) [nM] | IC50 (Toledo) [nM] | IC50 (HBL1) [nM] | IC50 (JVM2) [nM] | IC50 (L428) [nM] | IC50 (JVM13) [nM] | IC50 (LY1) [nM] | IC50 (SUDHL7) [nM] | other results
1 | Cn1c(=O)n(-c2ccc(C(C)(C)C#N)cc2)c2c3cc(-c4cnc5ccccc5c4)ccc3ncc21 [BEZ235] | 220 | 48.4 | 33.2 | 35.4 | 52 | 11.6 | 25 | 32.1 | 16.2 | 9390 | 2610 | 56.9 | 517 | 20.4 | 71.7 | 491 | 14.6 | 869 | 16.4 | 22.2 | toxicity in Ly8 cells as compared to normal B cells [1]: selective toxicity; IC50 (LY2): 29.7 nM; IC50 (LY8): 694 nM; sensitivity of the three shRNA-modified cell lines versus unmodified Ly8 cells [2]: 3.5 fold
2 | Nc1cc(C(F)(F)F)c(-c2cc(N3CCOCC3)nc(N3CCOCC3)n2)cn1 [BKM120] | 1220 | 826 | 1190 | 4450 | 3300 | 5030 | 236 | 714 | 1260 | 1520 | 435 | 674 | 476 | 2010 | 1670 | 1390 | 1870 | 933 | 382 | 233 | IC50 (LY2): 2220 nM; IC50 (LY8): 1370 nM

— patent publication US9861625B2, “Methods and compositions for treating cancer through inhibition of PI3K” (Duke University, priority 2014, dated 2018)
